Test results published in ChEMBL document CHEMBL5604063, “ASAP - DENV-2 NS2B-NS3 protease fluorescence dose response” (2024).
Where “and” joins values, the source holds several entries; their conditions need not be identical. Identical values can stand only once.

Tests used:
Genome polyprotein [1] = target: T1, Genome polyprotein (dengue virus type 2, UniProt P29990); format: functional, Thailand/16681/1984
Genome polyprotein [2] = target: T1, Genome polyprotein; format: functional, Thailand/16681/1984; remark: listed apart in the source

T1 sequence (P29990 1346-1475 limits assumed): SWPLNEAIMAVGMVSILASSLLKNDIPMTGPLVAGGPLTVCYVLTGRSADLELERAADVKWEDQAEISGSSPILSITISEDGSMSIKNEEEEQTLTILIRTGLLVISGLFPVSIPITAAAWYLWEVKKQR
T1 sequence (P29990 1476-2093 limits assumed): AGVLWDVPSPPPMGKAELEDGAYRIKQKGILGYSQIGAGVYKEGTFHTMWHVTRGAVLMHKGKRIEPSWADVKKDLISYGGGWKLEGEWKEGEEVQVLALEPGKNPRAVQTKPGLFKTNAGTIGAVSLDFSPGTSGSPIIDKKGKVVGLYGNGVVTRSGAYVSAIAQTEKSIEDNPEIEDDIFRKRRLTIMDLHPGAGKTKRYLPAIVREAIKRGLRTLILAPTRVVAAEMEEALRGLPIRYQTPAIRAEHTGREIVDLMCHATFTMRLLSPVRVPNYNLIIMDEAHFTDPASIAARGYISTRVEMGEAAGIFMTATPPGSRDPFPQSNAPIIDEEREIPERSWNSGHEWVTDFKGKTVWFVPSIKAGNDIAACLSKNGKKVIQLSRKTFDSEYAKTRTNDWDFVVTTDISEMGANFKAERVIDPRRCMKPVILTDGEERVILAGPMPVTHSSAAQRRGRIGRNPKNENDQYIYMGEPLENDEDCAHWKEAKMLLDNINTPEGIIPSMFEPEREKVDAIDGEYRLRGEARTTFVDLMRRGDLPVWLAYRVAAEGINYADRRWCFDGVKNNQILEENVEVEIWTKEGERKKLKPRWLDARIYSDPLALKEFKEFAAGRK

Structure (SMILES)	IC50 (Genome polyprotein [1])	IC50 (Genome polyprotein [2])
CNc1c(-c2cc(Cl)cc(C3CC3)c2)nc2cccc(C(=O)O)n12	> 100 µM	> 99.5 µM
Cc1nn(CCO)c(C(F)F)c1C(=O)Nc1cccc(CN)c1	> 100 µM	> 99.5 µM
O=C(Nc1cc(Cl)cc(C(=O)NC2([C@H]3CCNC3)CC2)c1)OCc1ccccc1	> 100 µM	> 99.5 µM
N#Cc1cccc(-c2nc3c(C(=O)Nc4ccc5c(c4)CNC5)cc(Cl)cc3[nH]2)c1	17.3 µM and 12.2 µM	1.76 µM and 2.66 µM
Cc1c(C(=O)Nc2cc(-c3cccnc3)ccn2)cnn1C1CC1	> 100 µM	> 99.5 µM
Cc1[nH]c2ccccc2c1[C@H]1CCN(C(=O)Nc2ccc3c(c2)CNC3)C1	> 100 µM	> 99.5 µM
C[C@@H](N)c1cccc(NC(=O)c2cc(Cl)cc(NC(=O)OCc3ccccc3)c2)c1	> 100 µM	81 µM
CC(C)(C)c1noc2nc(C(=O)Nc3ccc4c(c3)CNC4)ccc12	> 100 µM	> 99.5 µM
O=C(NC[C@H]1CCCO1)[C@H](Nc1ccc2c(c1)CNC2)c1cc(Cl)cc2[nH]ncc12	> 100 µM	> 99.5 µM
Cc1c(C(=O)Nc2cc(CN(C)C)ccn2)cc(C2CC2)n1C	> 100 µM	> 99.5 µM
O=C(Cn1ccnc(N2CC[C@H](CO)C2)c1=O)NCc1ccsc1	> 100 µM	> 99.5 µM
O=C(Nc1cc(Cl)cc(C(=O)Nc2cccc(-c3cc[nH]n3)c2)c1)OCc1ccccc1	> 100 µM	> 99.5 µM
CCn1c(=O)c(N2CC[C@H](CO)C2)nc2cc(C(N)=O)ccc21	> 100 µM	> 99.5 µM
O=C(Nc1cc([C@H]2CCOC2)ccn1)c1cc(F)c2[nH]ccc2c1	> 100 µM	> 99.5 µM
Cc1cccc(CNc2ccc(Cl)cc2C(=O)Nc2ccc3c(c2)CNC3)n1	> 100 µM	> 99.5 µM
O=C1Cc2c(cccc2C(=O)NC2CCN(c3nccs3)CC2)N1	> 100 µM	> 99.5 µM
NCCc1csc2cc(C(=O)Nc3cc([C@H]4CCOC4)ccn3)ccc12	> 100 µM	> 99.5 µM
O=C(Nc1ccc2c(c1)CNC2)c1cccc2ccncc12	> 100 µM	> 99.5 µM
NC[C@]1(F)C[C@@H](NC(=O)c2cc(Cl)cc(NC(=O)OCc3ccccc3)c2)C1	> 100 µM	66.6 µM
CNCc1cccc(NC(=O)c2cc(Cl)cc(NC(=O)OCc3ccccc3)c2)c1	> 100 µM	80.5 µM
Clc1ccc(-c2cc(CN3CCC(c4cscn4)CC3)[nH]n2)cc1	> 100 µM	> 99.5 µM

Structure (SMILES)	IC50 (Genome polyprotein [1])	IC50 (Genome polyprotein [2])
N#Cc1cc(Cl)cc([C@H](C#N)Nc2ccc3c(c2)CNC3)c1	> 100 µM	> 99.5 µM
NCc1cccc(NC(=O)c2cc(NC(=O)OCc3ccccc3)cc(C(N)=O)c2)c1	> 100 µM	> 99.5 µM
C=CC[C@H](Nc1cccc(-c2nn[nH]n2)c1)c1cc(Cl)cc(NC(=O)OCc2ccccc2)c1	6.22 µM and 4.97 µM	6.97 µM
O=C(O)CCc1ccc(NC(=O)c2cc(Cl)cc(NC(=O)OCc3ccccc3)c2)cc1	17.7 µM	42.8 µM
NCc1csc2cc(C(=O)Nc3cc([C@H]4CCOC4)ccn3)ccc12	> 100 µM	> 99.5 µM
O=C(Nc1cc(Cl)cc(C(=O)N[C@@]23CCCCC[C@@H]2NCC3)c1)OCc1ccccc1	> 100 µM	> 99.5 µM
O=C(Nc1ccc2c(c1)CNC2)c1cc(F)cc(-c2cnc(C3CC3)s2)c1	> 100 µM	> 99.5 µM
NC(=O)c1cn(C2CCCC2)nc1NC(=O)c1cccc2c1CC(=O)N2	> 100 µM	> 99.5 µM
O=C(Nc1ccc2c[nH]nc2c1)c1cc(Cl)cc2[nH]ncc12	> 100 µM	> 99.5 µM
NCc1cccc(NC(=O)c2cc(Cl)cc(CN3CCOCC3)c2)c1	> 100 µM	> 99.5 µM
O=C(Nc1cc(-c2cccnc2)ccn1)c1cnn2c1CCC2	> 100 µM	> 99.5 µM
N#Cc1cccc(-c2nc3c(C(=O)Nc4ccc5c(c4)CNC5)cc(F)cc3[nH]2)c1	10.9 µM and 29.7 µM	6.2 µM and 4.83 µM
Cn1cc(NC(=O)c2cc(Cl)cc(NC(=O)OCc3ccccc3)c2)cn1	> 100 µM	> 99.5 µM
O=C(NCC(F)F)[C@H](Nc1ccc2c(c1)CNC2)c1cc(Cl)cc2[nH]ncc12	> 100 µM	> 99.5 µM
C=C1C[C@H](c2cc(Cl)cc(NC(=O)OCc3ccccc3)c2)[C@@H](c2cccc(-c3nn[nH]n3)c2)C1	5.18 µM	6.29 µM
CNCc1cccc(NC(=O)c2cc(Cl)cc3[nH]ncc23)c1	> 100 µM	73.3 µM
N#CCc1cccc(NC(=O)c2cc(Cl)cc(NC(=O)OCc3ccccc3)c2)c1	> 100 µM	> 99.5 µM
CCNC(=O)Nc1cc(Cl)cc(C(=O)Nc2ccc3c(c2)CNCCO3)c1	> 100 µM	> 99.5 µM
NCc1cccc(NC(=O)[C@H]2CCOC3(CCC3)C2)c1	> 100 µM	> 99.5 µM
Cc1cc(C(=O)Nc2cccc(CN)c2)c2c(C)nn(CC(=O)NC(C)C)c2n1	> 100 µM	> 99.5 µM
O=C(Nc1ccc2c(c1)CNC2)c1c(Br)cc(Cl)c2[nH]ncc12	> 100 µM	> 99.5 µM

Structure (SMILES)	IC50 (Genome polyprotein [1])	IC50 (Genome polyprotein [2])
C=CC[C@H](Nc1ccc2c(c1)CNC2)c1cc(Cl)cc2[nH]ncc12	> 100 µM	14 µM and 53.1 µM
O=C1Cc2c(cccc2C(=O)Nc2cnc(OC3CCC3)nc2)N1	> 100 µM	> 99.5 µM
COC1CCN(C(=O)c2ccnc(NC(=O)c3cc(C4CC4)n(C)c3C)c2)CC1	> 100 µM	> 99.5 µM
Nc1n[nH]c2cc(C(=O)Nc3ccc4c(c3)CNC4)ccc12	> 100 µM	> 99.5 µM
O=C(O)CCCc1cccc(NC(=O)c2cc(Cl)cc(NC(=O)OCc3ccccc3)c2)c1	23.7 µM and 19.7 µM	37.2 µM
Cc1c(CN)cccc1NS(=O)(=O)c1ccc(Oc2ccccc2Cl)cc1	> 100 µM	> 99.5 µM
O=C(Nc1cc(Cl)cc(C(=O)N[C@H](c2nn[nH]n2)C2CNC2)c1)OCc1ccccc1	> 100 µM	> 99.5 µM
C=CC[C@H](Nc1cccc(-c2nn[nH]n2)c1)c1cc(Cl)cc2[nH]ncc12	53.4 µM and 45 µM	92 µM
Cc1c(C(=O)Nc2cc(C(=O)N(C)[C@H]3C[C@H](O)C3)ccn2)cc(C2CC2)n1C	> 100 µM	> 99.5 µM
CC(=O)N[C@]1(C)C(=O)Nc2cc(F)cc(C(=O)Nc3ccc4c(c3)CNC4)c21	> 100 µM	> 99.5 µM
N#CC1(S(=O)(=O)N2CCC([C@H](NC(=O)OCc3ccccc3)C(=O)Nc3cccc(CN)c3)CC2)CCC1	> 100 µM	81.8 µM
CNC(=O)[C@H](Nc1cncc(C(=O)O)c1)c1cc(Cl)cc(C2CC2)c1	> 100 µM	> 99.5 µM
O=C(Nc1ccc2c(c1)CNC2)c1cc(Cl)cc2[nH]c(-c3ccccc3)nc12	51.8 µM and 21.4 µM	3.31 µM
CCN(C)S(=O)(=O)N1CCC([C@H](NC(=O)OCc2ccccc2)C(=O)Nc2cccc(CN)c2)CC1	> 100 µM	> 99.5 µM
O=C(Nc1cc(-c2cccnc2)ccn1)c1cc(C2CC2)oc1C1CC1	> 100 µM	> 99.5 µM
c1cnc2[nH]cc(C3CCN(Cc4c[nH]c5ccncc45)CC3)c2c1	> 100 µM	> 99.5 µM
CN1C(=O)CC[C@H]1c1nc2c(C(=O)Nc3ccc4c(c3)CNC4)cc(F)cc2[nH]1	> 100 µM	> 99.5 µM
O=C(Nc1cc(Cl)cc(C(=O)NC[C@@]23CN[C@H](CCO2)C3)c1)OCc1ccccc1	> 100 µM	> 99.5 µM
C[C@H](NC(=O)c1cccc2c1CC(=O)N2)c1cc2cnccc2o1	> 100 µM	> 99.5 µM
O=C(Nc1ccc2c(c1)CN[C@H]2C(=O)O)c1cc(F)cc2[nH]ncc12	79.4 µM and > 100 µM	71.1 µM
C=C(C)c1ccc(Cl)cc1[C@H](Nc1ccc2c(c1)CNC2)C(=O)NCC(F)F	> 100 µM	> 99.5 µM

Structure (SMILES)	IC50 (Genome polyprotein [1])	IC50 (Genome polyprotein [2])
NCc1cccc(NC(=O)c2cc(Cl)ccc2-n2cncn2)c1	> 100 µM	> 99.5 µM
Cn1cnc2nc(Cl)cc(C(=O)Nc3ccc4c(c3)CNC4)c21	> 100 µM	> 99.5 µM
C=CC[C@H](Nc1cc(Cl)cc(NC(=O)OCc2ccccc2)c1)c1cccc(-c2nn[nH]n2)c1	6.73 µM and 4.97 µM and 5.55 µM and 5.77 µM and 4.21 µM and 4.15 µM	7.41 µM and 7.43 µM and 7.49 µM and 7.65 µM
C#Cc1ccnc(NC(=O)c2cc(C3CC3)n(C)c2C)c1	> 100 µM	> 99.5 µM
C[C@H](CC(=O)O)NC(=O)c1cc(Cl)cc(NC(=O)OCc2ccccc2)c1	> 100 µM	> 99.5 µM
CCn1c(C)cc(C(=O)Nc2cc(CCCN)ccn2)c1C	> 100 µM	> 99.5 µM
CN(C)CCNC(=O)[C@H](Nc1cccc(-c2nn[nH]n2)c1)c1cc(Cl)cc(NC(=O)OCc2ccccc2)c1	47.2 µM and 67.4 µM and > 100 µM	97.3 µM
O=C(Nc1cc(Cl)cc(C(=O)N[C@H]2CCCC[C@@H]2C(=O)O)c1)OCc1ccccc1	> 100 µM	> 99.5 µM
NCc1cc(Cl)cc(-c2ccc3[nH]c(C(=O)O)cc3c2)c1	> 100 µM	> 99.5 µM
C[C@H]1CCC[C@H](C(=O)Nc2cccc(CN)c2)O1	> 100 µM	> 99.5 µM
CCOC(=O)c1[nH]c(C)c(C(=O)Nc2cccc(CN)c2)c1CC	> 100 µM	> 99.5 µM
CCc1cc(C(=O)Nc2cccc(-c3nnn[nH]3)c2)sc1C	> 100 µM	> 99.5 µM
CNC(=O)[C@H](Nc1cc(CN)cc(-c2nn[nH]n2)c1)c1cc(Cl)cc(C2CC2)c1	> 100 µM	> 99.5 µM
O=C(O)c1ccc(NC(=O)c2cc(Cl)cc3[nH]ncc23)cc1	> 100 µM	> 99.5 µM
O=C(Nc1cc(Cl)cc(C(=O)Nc2ccc3c(c2)C(=O)OC3)c1)OCc1ccccc1	> 100 µM	> 99.5 µM
NCc1cc(Cl)cc(C(=O)Nc2cc([C@H]3CCOC3)ccn2)c1	> 100 µM	> 99.5 µM
Nc1nc2ccc(NC(=O)c3cc(Cl)cc(NC(=O)OCc4ccccc4)c3)cc2[nH]1	> 100 µM	> 99.5 µM
O=C(Nc1ccc2c(c1)CNC2)c1cc(Cl)cc(N2CCCC2)c1	> 100 µM	> 99.5 µM
O=C(Nc1ccc2c(c1)CNC2)c1cc(F)cc(/C=C/c2ccccc2)c1	57.3 µM	42.1 µM
Cn1cc2c(C(=O)Nc3ccc4c(c3)CNC4)cc(Cl)cc2n1	> 100 µM	> 99.5 µM
